According to US20200246364A1, “MEDICAL APPLICATION OF COMPOSITION OF FRUCTOSE-1,6-BISPHOSPHATE AND BLOOD CONCENTRATION STABILIZER THEREOF” (ZHEJIANG UNIVERSITY, priority 2017, published 2020):

Experiments:
glioma cells U87-MG = test: Lactic acid released by glioma cells (glycolysis); type: cell-based, human; settings: 1.6 mM
Protocol: (§1) Human glioma cell strains (U87-MG, KNS-89, SHG-44) were respectively incubated in culture media containing 0.8 mM of trisodium fructose-1,6-bisphosphate salt, and 1.6 mM of trisodium fructose-1,6-bisphosphate salt, and 1.6 mM of 2-deoxyglucose, and the contents of lactic acid as the final glycolytic product released by the cells in the culture media were measured after 12 h, 24 h, 36 h, and 48 h. […] Human glioma cell strain (U87-MG) was incubated in the culture medium containing 0.8 mM of trisodium fructose-1,6-bisphosphate salt for 1 h, 3 h, 6 h, 12 h, 24 h, 36 h, and 48 h, and level changes of key metabolic enzymes in the glycolytic pathway of cells were measured by Western Blot at the respective time points.

glioma cells KNS-89 = test: Lactic acid released by glioma cells (glycolysis); type: cell-based, human; settings: KNS-89, 1.6 mM
Protocol: as §1

glioma cells SHG-44 = test: Lactic acid released by glioma cells (glycolysis); type: cell-based, human; settings: SHG-44, 1.6 mM
Protocol: as §1

[1] = tested on: fructose-1,6-bisphosphatase 1; test: Kidney protein level of fructose-1,6-bisphosphatase 1 after 14 days treatment (Western Blot); type: in vivo; settings: SD rats, 14 days i.g.; FBP 500 mg/kg, metformin 150 mg/kg, sitagliptin 20 mg/kg; vs control group
Protocol: 180-200 g SD rats were divided into 4 groups: a saline control group, a trisodium fructose-1,6-bisphosphate hydrate group (500 mg/kg, i.g), a metformin group (150 mg/kg, i.g) or a sitagliptin group (20 mg/kg, i.g), and a trisodium fructose-1,6-bisphosphate and metformin or sitagliptin combination group, 5 rats in each group. All groups were intragastrically treated, metformin or sitagliptin was administrated 0.5 h before fructose-1,6-bisphosphate, and this was repeated in 14 consecutive days. At 3 hours after the last intragastric treatment with fructose-1,6-bisphosphate, rat blood was collected to detect the blood concentration of FBP, kidney tissue was taken and the protein level of fructose-1,6-bisphosphatase 1 was measured by Western Blot.

[2] = tested on: mouse liver cancer cells H22; test: Tumor growth of mouse liver cancer H22 model; type: in vivo, ICR mice; settings: FBP 500 mg/kg, i.g., 7 days; for Tumor weight: three times per day; for inhibition of tumor growth (inhibition ratio): H22, metformin 150 mg/kg, sitagliptin 20 mg/kg
Protocol: The treatment was performed three times per day, in which metformin or sitagliptin was administrated 0.5 h before trisodium fructose-1,6-bisphosphate. This is repeated for 7 days, and situations of the animals during the experiments were observed. The animals were sacrificed 24 hours after the last treatment, the tumor masses were taken out and weighed, and the average tumor weight in each group of animals was used as an efficacy index.

SW620 = test: cells; settings: Homo sapiens, SW-620, 72 h, read-out: cell viability (Con = 100)
Protocol: (§2) Human intestinal cancer cell strains SW620 and HCT-8, which had been incubated for 24 hours, were respectively incubated in a medium containing 0.8 mM of trisodium fructose-1,6-bisphosphate, a medium containing 0.2 mM of metformin/100 μM of sitagliptin, and a medium containing 0.8 mM of trisodium fructose-1,6-bisphosphate and 0.2 mM of metformin/100 μM of sitagliptin for 72 h. A control group (Con) was not treated with the agent. Cell viability was determined by Sulforhodamine B (SRB) staining analysis method.

Bel-7402 = test: cells; settings: Homo sapiens, Bel-7402, 72 h
Protocol: (§3) Human liver cancer cell strains Bel-7402 and huh-7, which had been incubated for 24 hours, were respectively incubated in a medium containing 1.6 mM or 0.8 mM of trisodium fructose-1,6-bisphosphate, a medium containing 0.2 mM of metformin or 25 μM of sitagliptin, and a medium containing 0.8 mM of trisodium fructose-1,6-bisphosphate and 0.2 mM of metformin/25 μM of sitagliptin for 72 h. A control group (Con) was not treated with the agent. Cell viability was determined by Sulforhodamine B (SRB) staining analysis method.

HCT-8 = test: Cell viability, Sulforhodamine B (SRB) staining; type: cell-based, human; settings: HCT-8, 72 h, FBP 0.8 mM
Protocol: as §2

Huh-7 = test: Cell viability, Sulforhodamine B (SRB) staining; type: cell-based, human; settings: Huh-7, 72 h, FBP 0.8 mM
Protocol: as §3

[3] = Weight gain and fat accumulation caused by high-fat diet; type: in vivo, ICR mice; settings: high-fat diet mice
Protocol: 40 ICR male mice (17-19 g/per mouse) were divided into 2 groups. […] The animals of the normal group (Naive) were still fed with the basic feed, and the model animals were equally divided into 4 groups and were further fed with the high-fat diet. In addition, according to the amount of water the mice had consumed, a certain dose of the agent was dissolved in drinking water. The animals in the model group (Model) were fed with the purified water, the animals in the fructose-1,6-bisphosphate group were fed with water containing 0.18% of 8-molecule hydrate of sodium fructose-1,6-bisphosphate (equivalent to FBP 300 mg/kg), the animals in the sitagliptin group were fed with water containing 0.012% of sitagliptin phosphate salt (equivalent to STG 20 mg/kg), and the animals in the combination group were fed with water containing FBP 500 mg/kg+STG 20 mg/kg. The treatment lasted continuously for 6 weeks, the body weight, food intake and water intake were measured per week, the body weight and body length (CM) were measured on the last day of the last week, and a Lee's INDEX (Lee's INDEX=body weight (g)^(1/3) * 1000/body length (cm)) was calculated to evaluate the state of animal obesity. Then, the animals were sacrificed by cervical vertebra dislocation and the mice were dissected, the epididymal fat pad was taken and weighed, and a fat coefficient was calculated to further investigate the degree of obesity of the mice.

melanoma B16 cell = test: Cell viability, Sulforhodamine B (SRB) staining; settings: Mus musculus, B16, 72 h, read-out: cell viability inhibited
Protocol: Mouse melanoma B16 cells, which had been incubated for 24 hours, were incubated in a medium containing 0.8 mM of trisodium fructose-1,6-bisphosphate, a medium containing 20 μM of sitagliptin, and a medium containing 0.8 mM of trisodium fructose-1,6-bisphosphate and 20 μM of sitagliptin for 72 h. A control group (Con) was not treated with the agent. Cell viability was determined by Sulforhodamine B (SRB) staining analysis method.

Compound: O=CC[C@@H](O)[C@H](O)[C@H](O)CO [2-DG, 2-deoxy-D-glucose]
- Relative levels of lactic acid (compared with the control group) (glioma cells U87-MG; 12 h): 0.48 ± 0.16
- Relative levels of lactic acid (compared with the control group) (glioma cells U87-MG; 24 h): 0.31 ± 0.07
- Relative levels of lactic acid (compared with the control group) (glioma cells U87-MG; 36 h): 0.65 ± 0.10
- Relative levels of lactic acid (compared with the control group) (glioma cells KNS-89; 12 h): 0.31 ± 0.09
- Relative levels of lactic acid (compared with the control group) (glioma cells KNS-89; 24 h): 0.27 ± 0.13
- Relative levels of lactic acid (compared with the control group) (glioma cells KNS-89; 36 h): 0.31 ± 0.02
- Relative levels of lactic acid (compared with the control group) (glioma cells SHG-44; 12 h): 0.76 ± 0.15
- Relative levels of lactic acid (compared with the control group) (glioma cells SHG-44; 24 h): 0.62 ± 0.13
- Relative levels of lactic acid (compared with the control group) (glioma cells SHG-44; 36 h): 0.57 ± 0.04

Compound: CN(C)C(=N)N=C(N)N [Met, metformin]
- protein level of fructose-1,6-bisphosphatase 1 in kidney tissue (Western Blot) [1]: not significantly changed
- Tumor weight ([2]; H22, metformin experiment, Met 150 mg/kg, Con 1.66 ± 0.29): 1.46 ± 0.23 g
- inhibition of tumor growth (inhibition ratio) [2]: no significant difference
- viability at 200 µM (SW620): 95.9 ± 7.54%
- viability at 200 µM (Bel-7402; read-out: cell viability (Con = 100)): 91.7 ± 1.62%
- cytotoxicity at 200 µM (Bel-7402; read-out: cell viability inhibited): 5%

Compound: N[C@@H](CC(=O)N1CCn2c(nnc2C(F)(F)F)C1)Cc1cc(F)c(F)cc1F [STG, sitagliptin]
- protein level of fructose-1,6-bisphosphatase 1 in kidney tissue (Western Blot) [1]: not significantly changed
- cell viability inhibited (HCT-8; sitagliptin 100 μM): did not affect
- viability at 100 µM (HCT-8; Homo sapiens, STG 100 μM, read-out: cell viability (Con = 100)): 95.4 ± 3.79%
- viability at 25 µM (Huh-7; Homo sapiens, STG 25 μM, read-out: cell viability (Con = 100)): 92.1 ± 1.35%
- cell viability inhibited (Huh-7; sitagliptin 25 μM): no significant difference
- Tumor weight ([2]; H22, sitagliptin experiment, STG 20 mg/kg, Con 1.48 ± 0.34): 0.78 ± 0.31 g
- inhibition of tumor growth (inhibition ratio) [2]: 46.12%
- fat coefficient (epididymal fat pad) ([3]; 6 weeks, model group 3.96±0.83%, normal group 1.58±0.68%): 3.28±1.14%
- Lee's INDEX ([3]; 6 weeks, model group 353.28±9.64, normal group 337.05±9.96): 346.34±9.36
- body weight after 6 weeks ([3]; agents in drinking water, FBP 300 mg/kg, STG 20 mg/kg, combination FBP 500 mg/kg+STG 20 mg/kg, model group 47.89±3.34): 46.78 ± 6.1 g
- cytotoxicity at 20 µM (melanoma B16 cell): 16%
